Peptide text beside a SMILES is read from it. * marks the point of attachment. Cbz = O=C(OCc1ccccc1)*; Boc = CC(C)(C)OC(=O)*
Molecular target: T1, Nav1.8 (Homo sapiens, UniProt Q9Y5Y9)
T1 construct: gene SCN10A
Test: whole-cell patch clamp of Nav1.[…] + FHF4A in ND7/[…] cells ([…] TTX), […] h pre-incubation; transient current
Assay type: cell-based

T1 sequence (Q9Y5Y9 whole entry, looked up): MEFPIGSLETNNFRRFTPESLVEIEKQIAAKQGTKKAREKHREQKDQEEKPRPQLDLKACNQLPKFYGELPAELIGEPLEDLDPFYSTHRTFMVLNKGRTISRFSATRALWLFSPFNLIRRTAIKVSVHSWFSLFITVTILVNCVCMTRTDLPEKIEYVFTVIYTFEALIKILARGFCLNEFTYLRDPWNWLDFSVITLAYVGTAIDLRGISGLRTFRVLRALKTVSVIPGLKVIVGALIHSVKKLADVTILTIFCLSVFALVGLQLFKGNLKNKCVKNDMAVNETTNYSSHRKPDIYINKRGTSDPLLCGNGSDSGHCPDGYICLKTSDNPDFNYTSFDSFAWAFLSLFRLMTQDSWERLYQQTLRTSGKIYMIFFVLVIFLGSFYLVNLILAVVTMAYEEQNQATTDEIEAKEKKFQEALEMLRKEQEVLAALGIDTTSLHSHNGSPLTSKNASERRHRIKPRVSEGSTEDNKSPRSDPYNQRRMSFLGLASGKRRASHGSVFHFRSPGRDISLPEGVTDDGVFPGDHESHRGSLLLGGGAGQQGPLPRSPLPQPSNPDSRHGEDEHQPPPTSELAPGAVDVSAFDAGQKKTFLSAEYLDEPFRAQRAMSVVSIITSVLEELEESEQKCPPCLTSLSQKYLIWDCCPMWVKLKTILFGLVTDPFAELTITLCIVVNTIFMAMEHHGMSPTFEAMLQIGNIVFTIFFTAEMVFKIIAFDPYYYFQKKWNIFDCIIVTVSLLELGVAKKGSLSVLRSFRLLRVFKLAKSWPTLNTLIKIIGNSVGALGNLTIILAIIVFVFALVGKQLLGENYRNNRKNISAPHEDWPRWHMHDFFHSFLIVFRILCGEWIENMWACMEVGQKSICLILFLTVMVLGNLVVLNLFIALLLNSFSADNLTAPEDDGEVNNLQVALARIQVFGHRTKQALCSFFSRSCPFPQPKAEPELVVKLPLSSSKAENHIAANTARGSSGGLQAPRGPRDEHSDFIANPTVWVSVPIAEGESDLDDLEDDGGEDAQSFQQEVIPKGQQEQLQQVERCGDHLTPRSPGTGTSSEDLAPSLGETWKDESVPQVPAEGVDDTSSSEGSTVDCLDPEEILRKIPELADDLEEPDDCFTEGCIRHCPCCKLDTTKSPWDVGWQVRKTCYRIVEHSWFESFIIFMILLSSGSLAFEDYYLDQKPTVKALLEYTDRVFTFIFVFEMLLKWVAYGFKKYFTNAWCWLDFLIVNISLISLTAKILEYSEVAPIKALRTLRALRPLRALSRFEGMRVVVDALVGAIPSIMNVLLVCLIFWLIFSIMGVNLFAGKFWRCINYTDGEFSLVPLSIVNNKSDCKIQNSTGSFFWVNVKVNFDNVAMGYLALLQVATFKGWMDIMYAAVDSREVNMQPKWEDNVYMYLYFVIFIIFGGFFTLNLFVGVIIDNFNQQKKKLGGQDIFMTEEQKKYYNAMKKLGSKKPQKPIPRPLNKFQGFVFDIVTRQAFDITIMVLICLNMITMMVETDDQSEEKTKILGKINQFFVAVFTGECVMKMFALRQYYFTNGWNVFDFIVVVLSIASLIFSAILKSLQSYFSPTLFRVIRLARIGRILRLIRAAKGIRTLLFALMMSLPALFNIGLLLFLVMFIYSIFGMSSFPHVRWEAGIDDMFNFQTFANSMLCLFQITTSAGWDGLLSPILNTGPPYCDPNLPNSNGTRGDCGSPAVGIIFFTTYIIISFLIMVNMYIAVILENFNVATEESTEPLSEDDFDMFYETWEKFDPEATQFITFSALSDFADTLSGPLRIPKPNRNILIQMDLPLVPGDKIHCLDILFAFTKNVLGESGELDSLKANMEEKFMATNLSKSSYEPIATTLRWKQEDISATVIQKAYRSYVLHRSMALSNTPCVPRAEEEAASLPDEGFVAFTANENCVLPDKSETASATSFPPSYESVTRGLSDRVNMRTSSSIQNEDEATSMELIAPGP

For `CC(C)C[C@H](NC(=O)[C@H](Cc1ccccc1)NC(=O)OCc1ccccc1)C(=O)N1CCC[C@H]1C(=O)N[C@@H](CCCCNC(=O)OC(C)(C)C)C(N)=O` [ZL0177] (Cbz-FLPK(Boc)-NH2), the IC50 was about 19.5 µM.
